# Source: US9499570B2, “Boron containing small molecules” (priority 2010, dated 2016)
# “Also recorded” adds a separate entry of the source.
# How the values were obtained:
# Brugia malayi = Brugia malayi in vitro assay, adult female worms; settings: 50 uM
# Method: Adult female worms are shipped from TRS Labs Inc. (Nonglak Supakorndej, Lab Director, 295 Research Dr., Athens, Ga. 30605; 706-549-0764) via Fed Ex. Individual worms are shipped in 2 mls vials with RPMI on Mondays and arrive at the […] Center lab on Tuesday mornings. Individual worms are poured into each well (24-well tissue culture plates) to avoid handling worms since they are very delicate and easily broken. Transport media is removed and replaced with 0.5 mls of RPMI-1640 (25 mM HEPES, 2 g/L NaHCO3, Antibiotic/Antimycotic, 5% HI FBS). Worms are maintained in a 37° C. 5% CO2 incubator. Compounds are added directly to each duplicate well (5 ul of 5 mM for a final concentration of 50 uM). DMSO (5 ul) is used as a negative control and Ivermectin (Sigma) is used as a positive control at 100 uM/well and 20 uM/well. Adult filarial nematodes can shed/give birth to microfilarial worms (mf) during the course of the assay. Wells were reviewed for the presence of mf, and the viability of mf, by visual observation of the well on the last day of observation (Day 7). Plates are examined once a day for 4-7 days. […] If changes are observed, worms are more closely examined under a dissecting microscope.
# [1] = system: Schistosoma mansoni schistosomula; assay: Schistosoma mansoni schistosomula phenotype screen in vitro; settings: Second Set, 5 uM, listed as 6-(1-Hydroxy-1,3-dihydro-benzo[c][1,2]oxaborol-5-yloxy)-2-(4-oxo-pentyloxy)-5-ch
# From the text: (§1) Puerto Rican isolates of S. mansoni using Biomphalaria glabrata snails and golden hamsters as intermediate and definitive hosts, respectively, were maintained and handled in the University of California-San Francisco Sandler Center for Tropical Medicine. Patent B. glabrata snails (6-8 weeks after exposure to 5-10 infectious miracidia) were induced to shed infective larvae (cercariae) under light stimulus into the surrounding water. Cercariae were washed in rounds of ice-cold water and concentrated through and over sieves of varying pore sizes. They were then mechanically sheared (separation of heads from tails) as described in Colley D G, et al. Exp Parasitol 1974, 35:44-51, in ice-cold Incomplete Medium 169 (as described in Basch P F. J Parasitol 1981, 67:179-185, minus FBS and antibiotics) by passing 15 times through a double headed 22-gauge syringe needle connected to two 10 mL syringes. The resulting cercarial heads (schistosomula) were separated from their tails by swirling in a petri dish. Concentrated schistosomula were added to a sterile 1.5 mL centrifuge tube and allowed to settle over ice. Schistosomula were transferred to a sterile environment and washed 4 times in Incomplete Medium 169 prior to plating.
# (§2) Two sets of screening were performed. In the first set, compounds were screened against schistosomula and observations were made at 24 hours, 2 days, 3 days, 4 days, and 6 days. In the second set, compounds were screened against schistosomula with observations at 24 hours, 2 days, 3 days, and 4 days and adult worms at 7 hours, 24 hours, 4 days, and 6 days.
# Plates contain 200 schistosomula/well in […] complete Basch medium and were maintained at 37° C. in a 5% CO2 atmosphere. All compounds were tested in duplicate with at least two experimental replicates. Compounds and control compounds were added to the plates using the Biomek FXp using 96-well disposable tips. Final concentration of DMSO in each well was 0.5%.
# (§3) A semi-quantitative and controlled nomenclature for phenotypes that can arise as a result of compound insult to both schistosomula and adults was utilized (Abdulla M H, et al., PLoS Negl Trop Dis 2009, 3:e478). Phenotypes were recorded by visual inspection and on a flexible time basis but at least at 24 h and 4 day time-points in the case of large scale screening. […] To help eliminate bias, two screen analysts scored phenotypes ‘blind’ both to knowledge of the contents of each screening plate and the phenotypes scored by his/her colleague. Upon completing their individual assessments, each analyst's ‘hit sheet’ was then compared to derive a ‘consensus hit sheet’. Discrepancies in analysts' hit sheets were re-evaluated under the microscope to eventually make a consensus hit call.
# (§4) Hyper-coiled and coiled represent a verbal description of the visual phenotype as compared to the DMSO control. The + and ++ and +++ means more of the phenotype which preceded it. The − means less of the phenotype which preceded it. Results
# [2] = system: Schistosoma mansoni adult worms; assay: Schistosoma mansoni adult worm phenotype screen in vitro; settings: Second Set, 5 uM
# From the text: as §1, §2
# Given the delicacy and size (0.5-1.5 cm in length) of this stage all operations were performed manually by the Sandler Center. 24-well plates were set up with compound (final DMSO concentration=0.5%) containing approximately 5 pairs of worms (S. mansoni has separate sexes) in 2 mL complete Basch medium per well. Plates were maintained at 37° C. in a 5% CO2 atmosphere. All compounds were tested in duplicate with at least two experimental replicates.
# as §3, §4
SMILES,Presence and viability of microfilarial worms (mf) Day 7 (Brugia malayi; trial one),Worm activity / phenotype Day 1 (Brugia malayi; trial one),Worm activity / phenotype Day 3 (Brugia malayi; trial one),Worm activity / phenotype Day 7 (Brugia malayi; trial one),Presence and viability of microfilarial worms (mf) Day 7 (Brugia malayi; trial two),Worm activity / phenotype Day 1 (Brugia malayi; trial two),Worm activity / phenotype Day 2 (Brugia malayi; trial two),Worm activity / phenotype Day 3 (Brugia malayi; trial two),Worm activity / phenotype Day 7 (Brugia malayi; trial two),Schistosomula (juvenile infective form) worm screen phenotype 24 h ([1]; 24 h),Schistosomula (juvenile infective form) worm screen phenotype 2 d ([1]; 2 d),Schistosomula (juvenile infective form) worm screen phenotype 3 d ([1]; 3 d),Schistosomula (juvenile infective form) worm screen phenotype 4 d ([1]; 4 d),Worm activity / phenotype Day 2 (Brugia malayi; trial one),"Adult worm screen phenotype 7 h ([2]; 7 h, listed as 6-(1-Hydroxy-1,3-dihydro-benzo[c][1,2]oxaborol-5-yloxy)-2-(4-oxo-pentyloxy)-5-ch)","Adult worm screen phenotype 24 h ([2]; 24 h, listed as 6-(1-Hydroxy-1,3-dihydro-benzo[c][1,2]oxaborol-5-yloxy)-2-(4-oxo-pentyloxy)-5-ch)","Adult worm screen phenotype 4 d ([2]; 4 d, listed as 6-(1-Hydroxy-1,3-dihydro-benzo[c][1,2]oxaborol-5-yloxy)-2-(4-oxo-pentyloxy)-5-ch)",Adult worm screen phenotype 6 d* ([2]; 6 d)
"CC(C)OCCOc1nc(Oc2ccc3c(c2)COB3O)ccc1C#N [6-(1-hydroxy-1,3-dihydrobenzo[c][1,2]oxaborol-5-yloxy)-2-(4-isopropoxyethoxy)nicotinonitrile]",mf and alive,hyper-; also recorded: coiled,hyper-; also recorded: coiled,"0, and coiled",no mf and obs,hyper-; also recorded: coiled,hyper-; also recorded: coiled,4 (4=highly active (controls)),"0, and coiled",,,,,,,,,
"CC(=O)CCCOc1nc(Oc2ccc3c(c2)COB3O)c(Cl)cc1C#N [D231, 5-Chloro-6-(1-hydroxy-1,3-dihydrobenzo[c][1,2]oxaborol-5-yloxy)-2-(4-oxopentyloxy)nicotinonitrile]",no mf and obs,hyper-; also recorded: coiled,,"0, and coiled",no mf and obs,hyper-; also recorded: coiled,hyper-; also recorded: coiled,,"0, and coiled","R, O++,; also recorded: some deg-m","O++, and R−, and more and deg-M","O++, R−,; also recorded: more deg-M","O++, R−,; also recorded: more deg-M",hyper-; also recorded: coiled,"O+++,; also recorded: Sex sep (Sex sep=worm pairs have separated); also recorded: (violent; also recorded: motion)","O+++, Sex; also recorded: sep (violent; also recorded: motion)","O++, sex; also recorded: sep on sides,; also recorded: males dark","Dark, S"
